Measured values as given in DBAASP.
Values after ≈ are worked out from the molar mass of the structure shown. Each block holds one compound with its values, some of them ahead of it.

Legend:
Test in all cases: ≥ marks a high value that may be exact or a test limit, other limits are often not marked, values filed in µg/mL are converted to µM
[1] = system: Listeria monocytogenes ATCC 19115
[2] = system: Staphylococcus aureus RN4220
[3] = system: Pseudomonas aeruginosa ATCC 10145
Listeria monocytogenes = system: Listeria monocytogenes
[4] = system: Acinetobacter baumannii ATCC 17978
[5] = system: Staphylococcus aureus DSM 2569
[6] = system: Salmonella typhimurium DSM 19587
[7] = system: Staphylococcus aureus ATCC 6538
[8] = system: Escherichia coli O157:H7 ATCC 35150
[9] = system: Escherichia coli ATCC 8739
[10] = system: Listeria monocytogenes SLCC 5581
[11] = system: Clostridium perfringens ATCC 13124
[12] = system: Staphylococcus aureus ATCC 16558
[13] = system: Bacillus subtilis ATCC 6051
Bacillus cereus DSM 4222 = system: Bacillus cereus DSM 4222
[14] = system: Enterobacter cloacae ATCC 13047
[15] = system: Salmonella enterica subsp. enterica serovar Typhimurium ATCC 14028
[16] = system: Klebsiella pneumoniae ATCC 13883
[17] = system: Enterococcus faecium ATCC 19434
Escherichia coli = system: Escherichia coli
[18] = system: Escherichia coli ATCC 35150
[19] = system: Escherichia coli NEB5alpha
[20] = system: Salmonella enterica subsp. enterica serovar Typhimurium DSM 554
[21] = system: Staphylococcus aureus ATCC 3300
[22] = system: Bacillus subtilis ATCC 6633
[23] = system: Staphylococcus aureus ATCC 43300
[24] = system: Clostridium perfringens DSM 11784
[25] = system: Pseudomonas putida DSM 291
[26] = system: Staphylococcus aureus ATCC 25923
[27] = system: Escherichia coli NCTC 13452
[28] = system: Pseudomonas fluorescens DSM 50124
Bacillus cereus DSM 4312 = system: Bacillus cereus DSM 4312
[29] = system: Bacillus subtilis KCCM 11495
[30] = system: Escherichia coli KCCM 11569
[31] = system: Candida albicans ATCC 10231
[32] = system: Candida parapsilosis ATCC 90018
[33] = system: Pseudomonas aeruginosa ATCC 27853
[34] = system: Candida tropicalis ATCC 750
Candida krusei ATCC 6258 = system: Candida krusei ATCC 6258
[35] = system: Staphylococcus aureus ATCC 29213
[36] = system: Candida glabrata ATCC 2001
[37] = system: Escherichia coli ATCC 25922
Fusarium graminearum = system: Fusarium graminearum
Candida albicans PEEC 2 = system: Candida albicans PEEC 2
[38] = system: Candida tropicalis DBFIQ 3
[39] = system: Escherichia coli ATCC 35218
[40] = system: Staphylococcus aureus BSF FBCB1313
[41] = system: Enterococcus faecalis ATCC 29212
Candida albicans DBFIQ 1 = system: Candida albicans DBFIQ 1
Staphylococcus aureus = system: Staphylococcus aureus
[42] = system: Bifidobacterium longum subsp. infantis

SMILES: CC(C)C[C@H](NC(=O)CNC(=O)[C@H](Cc1cnc[nH]1)NC(=O)[C@H](Cc1cnc[nH]1)NC(=O)[C@H](CC(C)C)NC(=O)[C@H](CC(C)C)NC(=O)[C@H](C)NC(=O)[C@H](CC(N)=O)NC(=O)[C@H](CC(C)C)NC(=O)[C@@H](N)Cc1c[nH]c2ccccc12)C(=O)N[C@@H](CC(N)=O)C(=O)N[C@@H](CS)C(=O)N[C@@H](C)C(=O)N[C@@H](CCCCN)C(=O)NCC(N)=O [WLNALLHHGLNCAKG]
MIC [29]: ≥ 38.9 µM
MIC [30]: ≥ 38.9 µM

SMILES: CC(C)C[C@H](NC(=O)[C@@H](N)CCCCN)C(=O)N[C@@H](CS)C(=O)N[C@@H](CCC(=O)O)C(=O)N[C@@H](CCCCN)C(=O)N1CCC[C@H]1C(=O)N[C@@H](CO)C(=O)N[C@@H](CCCCN)C(=O)N[C@H](C(=O)N[C@@H](Cc1c[nH]c2ccccc12)C(=O)N[C@@H](Cc1ccccc1)C(=O)NCC(=O)N[C@@H](CC(N)=O)C(=O)N[C@@H](CS)C(=O)NCC(=O)N[C@@H](CC(N)=O)C(=O)N1CCC[C@H]1C(=O)N[C@@H](CCCN=C(N)N)C(=O)N[C@@H](Cc1cnc[nH]1)C(=O)N[C@@H](CS)C(=O)NCC(=O)O)[C@@H](C)O [KLCEKPSKTWFGNCGNPRHCG]
MIC (Fusarium graminearum): ≥ 32 µM

SMILES: CC[C@H](C)[C@H](NC(=O)[C@@H]1CCCN1C(=O)[C@H](CC(N)=O)NC(=O)[C@H](Cc1cnc[nH]1)NC(=O)[C@@H](NC(=O)[C@@H]1CCCN1C(=O)[C@H](C)NC(=O)[C@@H](N)CC(C)C)C(C)C)C(=O)O [LAPVHNPI]
MIC (Escherichia coli): 3490 µM (≈ 3000 µg/mL)
MIC (Staphylococcus aureus): 3490 µM (≈ 3000 µg/mL)
MIC [42]: ≥ 3490 µM

Other lines, results leading:

MIC [1]: ≥ 1160 µM
MIC [2]: ≥ 1160 µM
MIC [3]: ≥ 464 µM
MIC (Listeria monocytogenes): ≥ 250 µM
MIC [4]: ≥ 464 µM
MIC [5]: ≥ 500 µM
MIC [6]: ≥ 1000 µM
MIC [7]: > 1160 µM
MIC [8]: ≥ 371 µM
MIC [9]: ≥ 371 µM
MIC [10]: ≥ 500 µM
MIC [11]: ≥ 125 µM
MIC [12]: ≥ 1160 µM
MIC [13]: 15.6 µM (≈ 33.7 µg/mL)
MIC (Bacillus cereus DSM 4222): ≥ 1000 µM
MIC [14]: ≥ 464 µM
MIC [15]: > 464 µM
MIC [16]: ≥ 464 µM
MIC [17]: ≥ 464 µM
MIC (Escherichia coli): > 464 µM
MIC [18]: ≥ 500 µM
MIC [19]: ≥ 62.5 µM
MIC [20]: ≥ 1000 µM
MIC [21]: ≥ 500 µM
MIC [22]: ≥ 1160 µM
MIC [23]: > 464 µM
MIC [24]: ≥ 1000 µM
MIC [25]: ≥ 125 µM
MIC [26]: > 464 µM
MIC [27]: ≥ 125 µM
MIC [28]: ≥ 500 µM
MIC (Bacillus cereus DSM 4312): ≥ 1000 µM
SMILES: CC[C@H](C)[C@H](NC(=O)[C@@H](N)CCCN=C(N)N)C(=O)N[C@@H](CCCCN)C(=O)N[C@H](C(=O)N[C@H](C(=O)N[C@H](C(=O)N[C@@H](CO)C(=O)N[C@@H](Cc1ccccc1)C(=O)N[C@@H](CC(=O)O)C(=O)N[C@@H](CC(C)C)C(=O)N1CCC[C@H]1C(=O)N[C@@H](C)C(=O)N[C@@H](CC(C)C)C(=O)N[C@@H](CCCN=C(N)N)C(=O)N[C@@H](Cc1c[nH]c2ccccc12)C(=O)N[C@@H](CC(C)C)C(=O)N[C@@H](CCCCN)C(=O)N[C@@H](CC(C)C)C(=O)O)[C@@H](C)O)C(C)C)[C@@H](C)O [RIKTVTSFDLPALRWLKL]

MIC [31]: 250 µM (≈ 489 µg/mL)
MIC [32]: ≥ 500 µM
MIC [33]: > 130 µM
MIC [34]: ≥ 500 µM
MIC (Candida krusei ATCC 6258): ≥ 62.5 µM
MIC [35]: > 130 µM
MIC [36]: ≥ 500 µM
MIC [37]: > 130 µM
SMILES: CC[C@H](C)[C@H](NC(=O)CN)C(=O)N[C@@H](CC(C)C)C(=O)N[C@@H](CC(=O)O)C(=O)N[C@H](C(=O)N[C@@H](CCCCN)C(=O)N[C@@H](CC(N)=O)C(=O)N[C@@H](CCCCN)C(=O)N[C@H](C(=O)N[C@@H](CO)C(=O)N[C@@H](CC(N)=O)C(=O)N[C@@H](CC(C)C)C(=O)N[C@@H](Cc1ccccc1)C(=O)N[C@@H](CCCCN)C(=O)N[C@@H](CCCCN)C(=O)N[C@H](C(=O)N[C@@H](CCCCN)C(N)=O)[C@@H](C)CC)C(C)C)[C@@H](C)CC [GILDIKNKVSNLFKKIK]

MIC [33]: 2.6 µM (≈ 4.07 µg/mL)
MIC (Candida albicans PEEC 2): ≥ 40.8 µM
MIC [38]: ≥ 81.7 µM
MIC [39]: 5.1 µM (≈ 7.99 µg/mL)
MIC [40]: 10.2 µM (≈ 16 µg/mL)
MIC [41]: 5.1 µM (≈ 7.99 µg/mL)
MIC [26]: 2.6 µM (≈ 4.07 µg/mL)
MIC (Candida albicans DBFIQ 1): ≥ 40.8 µM
SMILES: CC(C)C[C@H](NC(=O)[C@H](CCCCN)NC(=O)[C@H](CCCCN)NC(=O)[C@H](Cc1ccccc1)NC(=O)[C@H](CC(C)C)NC(=O)[C@H](CCCCN)NC(=O)[C@H](CCCCN)NC(=O)[C@H](Cc1ccccc1)NC(=O)[C@H](CC(C)C)NC(=O)[C@@H](N)CCCCN)C(=O)N[C@@H](Cc1ccccc1)C(=O)N[C@@H](CCCCN)C(N)=O [KLFKKLFKKLFK]
